Patent US7056491B2, “Monoterpenes and sesquiterpenes as chemotherapeutic and radiation sensitizers and immunomodulators” (Wisconsin Alumni Research Foundation, priority 2000, dated 2006)

Tests used:
[1] = tested on: MO59K cells; assay: Clonogenic survival assay, POH with or without radiation, MO59K; format: cell-based, human; settings: for % SURVIVAL: MO59K
Experimental: Subconfluent cultures of human glioma cell line MO 59K were treated with 0.1–0.5 mM of POH for 72 hours and subsequently to increasing doses of radiation from 0.1 Gy to 8.5 Gy. Control cells were treated with the indicated doses of radiation alone. The cells were harvested and an optimum number of cells were allowed to grow for 14 days. The resulting colonies were stained and counted. Each graphed point represents mean values ± SE values of triplicate dishes.
(§1) Table 1 summarizing data from different cell lines treated with radiation, radiation plus POH, and POH alone. Subconfluent cultures of human glioma (T98G, M059K, U251), prostate (DU145, PC3), colon (DLD-1, HT29) and pancreatic (MIAPACA) cancer cell lines were treated with 0.1–0.5 mM of POH for 72 hours and subsequently to increasing doses of radiation from 0.1 Gy to 8.5 Gy. Control cells were treated with medium alone. The cells were harvested and an optimum number of cells were allowed to grow for 14 days. The resulting colonies were stained and counted. Each graphed point represents mean values ± SE values of triplicate dishes. Percentage survival was determined as the ratio of plating efficiencies for each irradiated group to that of the unirradiated control.

[2] = tested on: HT29 colon cancer cells; assay: Clonogenic survival assay, POH with or without radiation, HT29; format: cell-based, human
Experimental: as §1

[3] = tested on: glioma, prostate, colon and melanoma cell lines; assay: Apoptosis by flow cytometry of propidium iodide stained cells (sub G0/G1 peak); format: cell-based, human; settings: 72 hours
Description: In the present study we evaluated the effect of POH treatment on a panel of human glioma (T98G, MO59K, U-87, U-373, U-251), prostate cancer cell lines (PC3 and DU145), colon (DLD-1, HT29), melanoma (Mel5, M21).

[4] = tested on: glioma and prostate cancer cell lines; assay: Apoptosis by dual colored (PI and Annexin V) flow cytometry; format: cell-based, human; settings: 1 mM POH, 72 hours
Experimental: Glioma (T98G, U251, U353, U87 and MO59K) and prostate (DU145, PC3) cell lines were treated with or without 1 mM perillyl alcohol (POH) for 72 hours. The cells were harvested by trypsinization washed with PBS and subsequently staimed with antibody to annexin V conjugated to FITC and with PI (10 μg/ml). Viable (annexin V^−/PI^−) pre-apoptotic (annexin V^+/PI^−), apoptotic (annexin V^+/PI^+), and the residual damaged (annexin V^−/PI^+) cells were quantitated using this protocol.

[5] = tested on: glioma, prostate, melanoma and colon cell lines; assay: Cell cycle analysis by propidium iodide flow cytometry; format: cell-based; settings: 1 mM POH 72 hours
Experimental: The indicated glioma (T98G, U251, U87, C6, U353 and MO59K), prostate (DU145 and PC3) melanoma (Mel5 and M21) and colon (DLD-1, HT29) cell lines were treated with medium or with 1 mM of POH dissolved in medium for 72 hours. The cells were harvested, fixed stained with propidium iodide and analyzed by flow cytometry to estimate the various phases of the cell cycle. Each point on the graph represents mean values of duplicate dishes.

[6] = tested on: Fas Ligand; assay: Membrane bound Fas ligand staining by flow cytometry; format: cell-based, human
Experimental: Referring to FIG. 17, glioma cell lines (T98G, U251, U87 and U353) were treated with 0.3 mM perillyl alcohol (POH) for 72 hours and the cells were harvested using cell dissociation solution. The resulting cell pellet was stained with biotinylated antibody specific to the human Fas-Ligand (Pharmingen), or IgG1 k isotype control for 45 minutes at 4° C. The cells were washed and incubated with streptavidin conjugated phycoerythrin washed and analyzed by flow cytometry.
The cells were harvested using cell dissociation solution, and the resulting cell pellet was washed and incubated with biotinylated anti-human antibody, which served as a control to eliminate non-specific binding. Following the primary antibody incubation the cells were washed and subsequently stained with secondary antibody conjugated to phycoerythrin (PE) (PharMingen) and antibody to CD95 directly conjugated to allophycocyanin (APC). The stained cells were analyzed using a Beckton-Dickinson FACStar plus and the results were acquired using CELLquest software.
Subconfluent cultures of the indicated glioma (T98G, U251, U353, U87MG), prostate (DU145, PC3), colon (DLD-1) and melanoma (Mel5) cell lines were treated with varying concentrations of POH (0.1 mM–1 mM POH) dissolved in medium for 72 hours. […] The stained cells were analyzed using a Beckton-Dickinson FACStar plus and the results were acquired using CELLquest. […]

[7] = tested on: T98G and U87MG cell lines; assay: Inhibition of Fas-induced apoptosis by antagonistic antibody ZB4; format: cell-based; settings: 1 mM POH with CH11, absence of cycloheximide; inhibited by ZB4
Experimental: Referring to FIG. 26, semiconfluent culture plates T98G and U87MG cell lines were treated with the 1 mM POH in the presence or absence of the anti-CD95 antibody CH11 (100 ng/ml), cycloheximide (CX), the Fas-induced apoptosis blocking antibody ZB4 (2 ug/ml) or a combination of all for a period of 72 hours. Viability analysis was carried out using propidium iodide solution by flow cytometric analysis. Each graphed point in the figure represents the average values of duplicate samples.

[8] = tested on: T98G cells; assay: Clonogenic survival, POH pretreatment then doxorubicin, T98G; format: cell-based, human; settings: POH 0.1 mM–0.5 mM 48 hours then doxorubicin 0.01 uM–0.1 uM 48 hours
Experimental: Referring to FIG. 29, subconfluent cells of T98G cells were treated with varying concentrations of perillyl alcohol (0.1 mM–0.5 mM) for 48 hours and subsequently treated with the indicated dose of doxorubicin (0.01 uM–0.1 uM) for 48 hours. At the end of the treatment, POH-pretreated and untreated cells in the presence and absence of doxorubicin, were harvested, washed with PBS, plated at the desired cell number and incubated for two weeks. The colonies were stained with crystal violet and quantitated. Survival was determined as the ratio of plating efficiencies for each irradiated group to that of the untreated control. […] Doxorubicin at concentrations over 0.1 uM appeared to be toxic to the cells.

[9] = tested on: 21–26 kD proteins, including small GTP-binding proteins; settings: dose dependent, distal to HMG-CoA reductase; cited from earlier work

## C=C(C)[C@@H]1CC=C(CO)CC1 [POH, Perillyl alcohol]
[1]; M059K, cells not initially radiation resistant, 0.1–0.5 mM POH 72 h
  radiosensitization: lack of radiosensitization
[1]; 0.1 mM POH 72 h, no radiation
  % SURVIVAL: 0.939 ± 0.005%
[1]; 0.1 mM POH + 5.5 Gy
  % SURVIVAL: 0.061 ± 0.007%
[1]; 0.3 mM POH 72 h, no radiation
  % SURVIVAL: 0.660 ± 0.020%
[1]; 0.3 mM POH + 5.5 Gy
  % SURVIVAL: 0.080 ± 0.015%
[1]; 0.5 mM POH 72 h, no radiation
  % SURVIVAL: 0.623 ± 0.009%
[1]; 0.5 mM POH + 5.5 Gy
  % SURVIVAL: 0.056 ± 0.006%
[2]; 0.1 mM POH 72 h, no radiation
  % SURVIVAL: 1.060 ± 0.090%
[2]; 0.1 mM POH + 5.5 Gy
  % SURVIVAL: 0.050 ± 0.005%
[2]; 0.3 mM POH 72 h, no radiation
  % SURVIVAL: 0.714 ± 0.030%
[2]; 0.3 mM POH + 5.5 Gy
  % SURVIVAL: 0.034 ± 0.003%
[2]; 0.5 mM POH 72 h, no radiation
  % SURVIVAL: 0.400 ± 0.010%
[2]; 0.5 mM POH + 5.5 Gy
  % SURVIVAL: 0.006 ± 0.002%
[3]; 1 mM POH
  effect of higher concentrations on tumor cell lines: cell death via apoptosis
[3]; clinically relevant doses 0.1 mM–0.5 mM
  toxicity to tumor cell lines: relatively non-toxic
[4]
  early and late apoptotic cells (annexin V/PI): increase in the percentage of early as well as late apoptotic cells
[5]; MO59K
  cell cycle effect: G0/G1 block
[5]; all the cell lines except MO59K
  cell cycle effect: block in the G2/M phase
[6]; 0.1 mM–1 mM POH 72 hours, more pronounced at lower concentrations
  Fas Ligand in glioma, prostate, colon and melanoma cell lines: upregulation of the Fas Ligand
[6]; T98G, U251, U87, U353, 0.3 mM POH 72 hours
  membrane bound Fas ligand on glioma cell lines: upregulation
[7]
  Fas-mediated apoptosis: augmented Fas-mediated apoptosis
[8]
  sensitization to doxorubicin-induced cell death: dose-dependent sensitization
[9]
  isoprenylation of 21–26 kD proteins: inhibit isoprenylation
